# US20260250278A1, “PHENYL-SUBSTITUTED DIHYDRONAPHTHYRIDINE COMPOUNDS, AND PREPARATION AND USE THEREOF” (SUZHONG PHARMACEUTICAL GROUP CO., LTD., priority 2022, published 2026)
# Target: T1, mineralocorticoid receptor (MR) (Homo sapiens, UniProt P08235)
# T1 construct: expressed in transfected cells
# T1 sequence (P08235 726-964 limits assumed): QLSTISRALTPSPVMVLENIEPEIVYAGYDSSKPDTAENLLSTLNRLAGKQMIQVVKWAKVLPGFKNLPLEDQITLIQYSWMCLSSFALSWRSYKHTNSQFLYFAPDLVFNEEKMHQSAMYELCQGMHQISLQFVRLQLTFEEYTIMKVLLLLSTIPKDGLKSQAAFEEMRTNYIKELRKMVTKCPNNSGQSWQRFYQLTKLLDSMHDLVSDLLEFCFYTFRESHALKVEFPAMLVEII
# Experiment: MR Gal4-LBD luciferase reporter gene assay in HEK293T cells (antagonism of 0.8 nM aldosterone)
# Type: cell-based
# Description: By the characteristic of chemiluminescence reaction produced by combination of luciferase and substrate, a Gal4 DNA binding domain (DBD) fused plasmid containing a mineralocorticoid receptor (MR) ligand binding domain (LBD) and a firefly luciferase reporter gene plasmid under the control of Gal4 UAS (upstream activation sequence) were transfected into human embryonic kidney cells (HEK293). Changes of […] were judged by a level of firefly luciferase activity.
# All compounds were dissolved in DMSO to prepare a 25 mM stock solution, and stored in a refrigerator at −20° C.
# • 1) A compound to be tested was subjected to 3-times gradient dilution with the DMSO, with 10 concentration gradients and an initial concentration of 10 mM. • 2) A positive compound (Finerenone) was subjected to 3-times gradient dilution with the DMSO, with 10 concentration gradients and an initial concentration of 1 mM. • 3) 1000× positive control (1 mM, Finerenone) and 1000× negative control (100% DMSO) were prepared. • 4) A compound plate was sealed and shaken for 5 minutes.
# • 5) All cells were cultured by ATCC standard operation, and HEK293T was experimented in an exponential growth phase. • 6) A culture medium supernatant was gently discarded. The cells were washed with PBS twice.
# (3) The cells were digested with pancreatin digestive juice, the digestion was stopped with a complete culture solution, and then the cells were collected and counted.
# (4) 6×10^6 HEK293T cells were inoculated into a 100 mm cell culture dish.
# (5) The culture dish inoculated with the cells was cultured in a 5% CO2 incubator at 37° C. for 16 hours overnight.
# • 1) Lipofectamine® 3000&P3000 transfection reagents were placed at room temperature. • 2) The Lipofectamine® 3000 reagent was added into an Opti-MEM™ culture medium, and meanwhile, the P3000, the plasmid and the Opti-MEM™ culture medium were added into another tube, taking care not to touch the tube wall. • 3) The mixture was mixed evenly by a pipette, and allowed to stand at room temperature for 5 minutes. • 4) The plasmid was added into the diluted transfection reagent, mixed evenly by a pipette, and allowed to stand at room temperature for 20 minutes. • 5) The transfection reagent mixed with the plasmid was added into a […] cell culture dish. • 6) The culture dish was cultured in a 5% CO2 incubator at 37° C. for 5 hours to 6 hours.
# • 1) 25 nL of diluted compound was transferred to a cell culture plate with Echo655. • 2) The cells (referring to step 1.3) were inoculated into a 384 cell culture plate, with 17,000 cells, 25 μL of phenol red-free DMEM culture medium containing 5% CFBS and 0.8 nM Aldosteron per well.
# (3) The cell culture plate was cultured in a 5% CO2 incubator at 37° C. for 18 hours to 20 hours overnight.
# • 1) A Britelite plus detection reagent was placed at room temperature. 2) The 384 cell plate was placed at room temperature. • 3) 25 μL of Britelite plus detection reagent was added into each well of the cell culture plate. • 4) A luminescence was detected with Envision.
# • 1) a firefly luciferase signal was obtained by reading the Luminescence to calculate an inhibition rate; • 2) % inhibition rate=100−[(RLU compound−avgRLU positive control)/(RLU negative control−avgRLU positive control)×100%, wherein the avgRLU positive control was an average value of Luminescences of all positive control wells in the whole plate; the avgRLU negative control was an average value of Luminescences of all negative control wells in the whole plate; and the RLU compound was Luminescence values of compounds to be tested with different concentrations; and • 3) IC50 of the compound was calculated by Graphpad8.0 Drawing software.
smiles,measurement,value
CCOc1ncc(C)c2c1C(c1ccc(C#N)cc1OC)C(c1ncco1)=C(C)N2 (stereo not drawn) [Example 1],IC50,192 nM
"CCOc1ncc(C)c2c1C(c1ccc(C#N)cc1OC)C(c1nnco1)=C(C)N2 (stereo not drawn) [Example 2, 4-(5-ethoxy-2,8-dimethyl-3-(1,3,4-oxadiazole-2-yl)-1,4-dihydro-1,6-naphthyridine-4-yl)-3-methoxybenzonitrile]",IC50,48.9 nM
"CCOc1ncc(C)c2c1C(c1ccc(C#N)cc1OC)C(c1nnc(C)o1)=C(C)N2 (stereo not drawn) [Example 3, 4-(5-ethoxy-2,8-dimethyl-3-(5-methyl-1,3,4-oxadiazole-2-yl)-1,4-dihydro-1,6-naphthyridine-4-yl)-3-methoxybenzonitrile]",IC50,113 nM
"CCOc1nc2c(c3c1C(c1ccc(C#N)cc1OC)C(C(N)=O)=C(C)N3)CCC2 (stereo not drawn) [Example 4, 4-(4-cyano-2-methoxyphenyl)-5-ethoxy-2-methyl-4,7,8,9-tetrahydrocyclopentane-1H-cyclopentamide]",IC50,111 nM
"COc1cc(C#N)ccc1C1C(C#N)=C(C)Nc2c1ccc1c2CCC1 (stereo not drawn) [Example 5, 4-(4-cyano-2-methoxyphenyl)-2-methyl-4,7,8,9-tetrahydrocyclopentane-3-carbonitrile]",IC50,235 nM
"CCOc1ncc(C)c2c1C(c1ccc(C#N)c3c1OCCC3)C(C(N)=O)=C(C)N2 (stereo not drawn) [Example 6, 4-(5-cyanored-8-yl)-5-ethoxy-2,8-dimethyl-1,4-dihydro-1,6-naphthyridine-3-formamide]",IC50,21.6 nM
"COc1cc(C#N)ccc1C1C(C#N)=C(C)Nc2c(C)cn3nccc3c21 (stereo not drawn) [Example 7, 10-(4-cyano-2-methoxyphenyl)-6,8-dimethyl-7H,10H-pyrazolo[3,2-f]1,6-naphthyridine-9-carbonitrile]",IC50,322 nM
"COc1cc(C#N)ccc1C1C(C#N)=C(C)Nc2sc3ccccc3c21 (stereo not drawn) [Example 8, 4-(4-cyano-2-methoxyphenyl)-2-methyl-1,4-dihydrobenzo[4,5]thieno[2,3-b]pyridine-3-carbonitrile]",IC50,20.4 nM
"CCOc1nn(C)c2c1C(c1ccc(C#N)cc1OC)C(C#N)=C(C)N2 (stereo not drawn) [Example 9, 4-(4-cyano-2-methoxyphenyl)-3-ethoxy-1,6-dimethyl-4,7-dihydropyrazolo[3,4-b]pyridine-5-carbonitrile]",IC50,661 nM
"COc1cc(C#N)ccc1C1C(C#N)=C(C)Nc2c(C)cc3nncn3c21 (stereo not drawn) [Example 10, 9-(4-cyano-2-methoxyphenyl)-5,7-dimethyl-6,9-dihydro[1,2,4]triazolo[4,3-a][1,5]naphthyridine-8-carbonitrile]",IC50,348 nM
"CCOc1ncc(C)c2c1C(c1ccc(C#N)c3c1OCC3)C(C(N)=O)=C(C)N2 (stereo not drawn) [Example 11, 4-(4-cyano-2,3-dihydrobenzofuran-7-yl)-5-ethoxy-2,8-dimethyl-1,4-dihydro-1,6-naphthyridine-3-formamide]",IC50,92.1 nM
"CCOc1nc2ccccc2c2c1C(c1ccc(C#N)cc1OC)C(C#N)=C(C)N2 (stereo not drawn) [Example 12, 4-(4-cyano-2-methoxyphenyl)-5-ethoxy-2-methyl-1H,4H-benzo[h]-1,6-naphthyridine-3-carbonitrile]",IC50,215 nM
"CCOc1nc2ccsc2c2c1C(c1ccc(C#N)cc1OC)C(C(N)=O)=C(C)N2 (stereo not drawn) [Example 13, 6-(4-cyano-2-methoxyphenyl)-5-ethoxy-8-methyl-6,9-dihydrothieno[3,2-h][1,6]naphthyridine-7-formamide]",IC50,232 nM
"CCOc1ncc(C)c2c1C(c1ccc(C#N)c3c1OCO3)C(C(N)=O)=C(C)N2 (stereo not drawn) [Example 14, 4-(7-cyanobenzo[d][1,3]dioxacyclopenten-4-yl)-5-ethoxy-2,8-dimethyl-1,4-dihydro-1,6-naphthyridine-3-formamide]",IC50,46.2 nM
"CC1=C(C(N)=O)C(c2ccc(C#N)c3c2OCC3)c2c(OC3CCCC3)ncc(C)c2N1 (stereo not drawn) [Example 15, 4-(4-cyano-2,3-dihydrobenzofuran-7-yl)-5-cyclopentoxy-2,8-dimethyl-1,4-dihydro-1,6-naphthyridine-3-formamide]",IC50,18.2 nM
CC1=C(C(N)=O)C(c2ccc(C#N)c3c2OCC3)c2c(OCC3CC(F)(F)C3)ncc(C)c2N1 (stereo not drawn) [Example 16],IC50,34.1 nM
"CC1=C(C(N)=O)C(c2ccc(C#N)c3c2OCC3)c2c(OC(F)F)ncc(C)c2N1 (stereo not drawn) [Example 17, 4-(4-cyano-2,3-dihydrobenzofuran-7-yl)-5-(difluoromethoxy)-2,8-dimethyl-1,4-dihydro-1,6-naphthyridine-3-formamide]",IC50,19.2 nM
"CC1=C(C(N)=O)C(c2ccc(C#N)c3c2OCC3)c2c(OC3CC3)ncc(C)c2N1 (stereo not drawn) [Example 18, 4-(4-cyano-2,3-dihydrobenzofuran-7-yl)-5-cyclopropoxy-2,8-dimethyl-1,4-dihydro-1,6-naphthyridine-3-formamide]",IC50,28.5 nM
"CC1=C(C(N)=O)C(c2ccc(C#N)c3c2OCC3)c2c(OCC3CC3)ncc(C)c2N1 (stereo not drawn) [Example 19, 4-cyano-2,3-dihydrobenzofuran-7-yl-5-cyclopropylmethoxy-2,8-dimethyl-1,4-dihydro-1,6-naphthyridine-3-formamide]",IC50,27.7 nM
"CC1=C(C(N)=O)C(c2ccc(C#N)c3c2OCC3)c2c(OC(C)C)ncc(C)c2N1 (stereo not drawn) [Example 20, 4-(4-cyano-2,3-dihydro-1-benzofuran-7-yl)-5-isopropoxy-2,8-dimethyl-1,4-dihydro-1,6-naphthyridine-3-formamide]",IC50,15.2 nM
"CC1=C(C(N)=O)C(c2ccc(C#N)c3c2OCC3)c2c(OC3CCC3)ncc(C)c2N1 (stereo not drawn) [Example 21, 4-(4-cyano-2,3-dihydrobenzofuran-7-yl)-5-cyclobutoxy-2,8-dimethyl-1,4-dihydro-1,6-naphthyridine-3-formamide]",IC50,20.2 nM
CC1=C(C(N)=O)C(c2ccc(C#N)c3c2OCC3)c2c(OCC3CCC3)ncc(C)c2N1 (stereo not drawn) [Example 22],IC50,8.7 nM
"CC1=C(C(N)=O)C(c2ccc(C#N)c3c2OCC3)c2c(OC(F)(F)F)ncc(C)c2N1 (stereo not drawn) [Example 23, 4-cyano-2,3-dihydrobenzofuran-7-yl-2,8-dimethyl-5-trifluoromethoxy-1,4-dihydro-1,6-naphthyridine-3-formamide]",IC50,24.8 nM
"CC1=C(C(N)=O)C(c2ccc(C#N)c3c2OCC3)c2c(OCC(F)(F)F)ncc(C)c2N1 (stereo not drawn) [Example 24, 4-cyano-2,3-dihydrobenzofuran-7-yl-2,8-dimethyl-5-(2,2,2-trifluoroethoxy)-1,4-dihydro-1,6-naphthyridine-3-formamide]",IC50,7.9 nM
"CCOc1ncc(C)c2c1C(c1ccc(C#N)c3c1OCCO3)C(C(N)=O)=C(C)N2 (stereo not drawn) [Example 25, 4-(8-cyano-2,3-dihydrobenzo[b][1,4]dioxin-5-yl)-5-ethoxy-2,8-dimethyl-1,4-dihydro-1,6-naphthyridine-3-formamide]",IC50,37.5 nM
"CCOc1ncc(C)c2c1[C@H](c1ccc(C#N)c3c1OCCC3)C(C(N)=O)=C(C)N2 [Example 32, (S)-4-(5-cyanored-8-yl)-5-ethoxy-2,8-dimethyl-1,4-dihydro-1,6-naphthyridine-3-formamide]",IC50,8 nM
"CCOc1ncc(C)c2c1[C@H](c1ccc(C#N)c3c1OCCO3)C(C(N)=O)=C(C)N2 [Example 40, (S)-4-(8-cyano-2,3-dihydrobenzo[b][1,4]dioxin-5-yl)-5-ethoxy-2,8-dimethyl-1,4-dihydro-1,6-naphthyridine-3-formamide]",IC50,12.7 nM
